In series [1] the test system is Swiss-Webster male mice. Put plainly: Mouse Activity and Screen Test Procedure (MAST). The class given is in vivo. Conditions: ip, 1 h, intraperitoneal, one hour prior to testing, active = rating A at 100 mg/kg or less, read-out: Dose at which an overall dose rating of A was obtained. From the text: The compounds of the present invention are new chemical substances which are useful as pharmaceutical agents for the treatment of psychoses such as, for example, schizophrenia. The antipsychotic activity of representative compounds of the invention was established by the Mouse Activity and Screen Test Procedure (MAST) described below:
ANIMALS: Nine unfasted Swiss-Webster male mice (Buckberg Labs) weighing 20-30 g are equally divided into three groups for each drug dose to be tested. That is, data for each dose level was generated by three separate groups of three mice each.
DRUGS: A minimum of three dose levels (10, 30, and 100 mg/kg) are tested for each drug. Treatments are administered intraperitoneally one hour prior to testing. All dosages are calculated as parent compound and given in volumes of […]. Compounds are dissolved or suspended in 0.2% Methocel. Control animals are injected with Methocel.
TESTING: A two-part testing procedure is started one hour postinjection. First, the screen test is performed (see Pharmac Biochem Behav 6, 351-353, 1977). Briefly, this test consists of placing mice on individual wire screens which are then rotated 180° at the start of a 60-second observation period. The number of mice falling off the inverted screen is recorded.
Immediately following the screen test, the final phase of testing is initiated by placing each group of three mice in one actophotometer (Life Sciences, 22, 1067-1076, 1978). The actophotometer consists of a cylindrical chamber whose center is occupied by another cylinder which contains the illumination for six photocells located on the perimeter of the chamber. Six light-beam interruptions equal one count. Locomotor activity is recorded by computer at ten-minute intervals for 60 minutes.
DATA: The data obtained from the screen test are expressed as percent of mice falling off the screen. Data derived from locomotor activity of drug-treated mice are compared to the activity of vehicle-treated animals and are expressed as percent inhibition of spontaneous locomotion. All percentages reported for inhibition of locomotion are based upon data accumulated for one hour. Both phases of testing are graded: A=60-100%; C=31-59%; and N=0-30%. An overall dose rating is obtained by the following criteria. […]
______________________________________
Inhibition of Screen Test Dose
Locomotion rating with Failure Rating
Utilizing this procedure, an overall dose rating of A was obtained for the noted compounds at the indicated dose as reported in Table 1.

Series [2] concerns the target dopamine receptors (Rattus norvegicus, UniProt P61169). Put plainly: [3H] haloperidol binding assay (HRBA). More on the design: species or system Long-Evans hooded rats. Conditions: displacement of [3H] haloperidol (0.6 nM), rat striatal membranes, pH 7.6, 25° C., 40 minutes. Here is the method:
[^3 H] Haloperidol Binding Assay. The relative affinities of compounds for dopamine receptors were evaluated on the basis of their ability to displace [^3 H] haloperidol from striatal membranes prepared from Long-Evans hooded rats. Rats were decapitated; the brains were removed, and the corpus striata were dissected. The corpus striata were homogenized in 40 volumes of […] Tris buffer (pH 7.6) and centrifuged. Pellets were rehomogenized in 50 volumes of the same buffer and used for the binding assay. Incubations were carried out in 10 ml of […] Tris-HCl buffer (pH 7.6) containing 2 mg/ml of original wet tissue weight of homogenate, 100 μl of test agent or solvent, and 0.6 nM of [^3 H] haloperidol. Nonspecific binding was determined in the presence of 0.1 μM (+)-butaclamol. Samples were incubated in reciprocating water bath at 25° C. for 40 minutes. Incubation was terminated by rapid filtration under reduced pressure through glass fiber filters (Whatman GF/B). The filters were rinsed three times with 10 ml of Tris-HCl buffer. The filters were placed in 10 ml of scintillation coctail (Beckman Ready-Solv HP) and shaken for one hour. Radioactivity retained on the filter was determined by liquid scintillation spectrophotometry. Compounds were initially evaluated at 10 nM. IC50 s when determined were calculated from a nonlinear computer curve, fit on the data from four or more concentrations, each done in triplicate.

For series [3], the system named is mature male hooded rats (Long-Evans strain). Kind of series: animal model of anxiety based on the Geller-Seifter conflict test. The class given is in vivo. Conditions: for Total Punished Responses, Test: four rats. The source says:
The compounds of the present invention are new chemical substances which are also useful as pharmaceutical agents for the treatment of anxiety, i.e., anxiolytic agents. The antianxiety activity of a representative compound showing such activity for the compounds of the Formula I of the present invention is established by the use of an animal model of anxiety based on the Geller-Seifter conflict test described in Psychopharmacologia 1:482 (1960). Particularly the test follows initial shaping of response, an experimental conflict is induced, with animals trained until stable performance is established. Each animal serves as his own control. A description of the test is as follows:
Subjects: Mature male hooded rats (Long-Evans strain) 300-350 g body weight.
Apparatus: The experimental chamber consists of an inner test compartment with a lever mounted in one wall, a grid floor, an automatic feeding device, and a speaker. This chamber is enclosed by a sound insulated cubicle. Shock is provided by a LVE Model 1531 Constant Current SHocker. White (masking) noise is supplied by a LVE Model 1524 Noise Generator. A tone is produced by a LVE Model 1664 4.5 KC Tone Generator. All events and recordings are automatic and are programmed with appropriate electric timers and relay devices.
Procedure: Variable interval (VI)=two-minute; trial periods=four; shock=0.6 to 0.8 ma; food reward=Borden's Sweetened Condensed Milk diluted two parts water to one part milk; animals are deprived to 70% of their free feeding weight and are 23 hours starved; session length=one hour and 12 minutes.
The conflict is induced in the following manner: hungry rats are conditioned to press a lever to obtain a food reward. Reinforcement is contingent upon a lever press and occurs at variable intervals on the average of once every two minutes--VI two-minute (See Ferster; C. B., and Skinner, B. F., "In Schedules of Reinforcement, " Appleton-Century-Crofts,New York, 1957).
Spaced at regular intervals throughout the experimental session are four three-minute periods. During these trial periods a tone signals that every lever press will be food reinforced (CRF) and simultaneously punished by a painful electric foot shock.
In other words, food-deprived rats are trained to depress a lever in order to obtain food (sweetened condensed milk). Normally, the rats perform on a variable interval (VI) schedule on which a lever press results in food delivery on the average of once every two minutes; the time between successive periods of food availability is varied continuously such that animals respond at low but steady rates to obtain occasional access to food. After animals perform for 12 minutes on this schedule the house lights are extinguished and two small stimulus lights are illuminated, signaling the availability of food for each depression of the lever during a three minute trial period. During the trial, each depression of the lever also results in the delivery of mild electric shock (0.8 ma, 0.25 second duration) delivered through the grid floor (punishment). Thus, an approach-avoidance conflict is established with associated anxiety: food is readily available for each response, but each respone is punished (see Miller, N. E., "Some Recent Studies of Conflict Behavior and Drugs," Am. Pharmacologist, 16: 12, 1961). The scheduled used in our test employed four successive trials, each preceded by a 12-minute period during which the food-reinforced VI was in effect.
During sessions in which no drug is administered, rats normally respond at steady rates on the VI component but emit very few responses during the punished trial period.
The total number of punished responses made by the four subjects in the pretest and test sessions for the noted compound are as follows.
The pretest responses are cummulative responses emitted during the three minute tests from a previous nondrug session. […]

Usually pIC50 stands for −log10 of the IC50, conventionally taken in molar units.

pIC50: −log10 of the molar value. Where two headings read alike, the source gives them in different places.

Sequence of dopamine receptors (P61169 whole entry): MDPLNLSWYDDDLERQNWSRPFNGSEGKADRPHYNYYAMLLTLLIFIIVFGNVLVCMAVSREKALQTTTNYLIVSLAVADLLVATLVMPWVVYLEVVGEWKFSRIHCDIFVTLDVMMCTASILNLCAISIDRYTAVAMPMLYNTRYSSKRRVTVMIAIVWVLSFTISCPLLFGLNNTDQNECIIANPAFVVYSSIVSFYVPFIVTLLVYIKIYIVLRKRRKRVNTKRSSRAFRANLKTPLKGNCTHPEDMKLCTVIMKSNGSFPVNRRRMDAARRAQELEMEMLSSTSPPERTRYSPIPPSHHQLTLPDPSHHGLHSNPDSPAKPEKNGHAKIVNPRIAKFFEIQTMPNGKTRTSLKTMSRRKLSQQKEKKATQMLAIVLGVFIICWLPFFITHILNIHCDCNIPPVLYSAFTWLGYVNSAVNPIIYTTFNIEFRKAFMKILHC

Turning to `CSc1ccc2c(c1)N(CCC1CCCCN1C)c1ccccc1S2` (stereo not drawn) [Thioridazine, reference compound], the minimal effective dose in series [1] is 10 mg/kg.

For the compound `O=c1ccc2ccc(OCCCN3CCN(c4ccccc4)CC3)cc2o1` [drawing 20], the pIC50 in series [2] (read-out: IC50) is 7.82.

In series [2], `Cc1cc(=O)oc2cc(OCCCN3CCN(c4ccccc4)CC3)ccc12` [drawing 21] showed a pIC50 of 7.30.

As to `O=c1ccc2ccc(OCCCN3CCN(c4ccccc4)CC3)cc2o1` [drawing 15], the minimal effective dose in series [1] is 3 mg/kg.

As for `O=c1ccc2ccc(OCCCN3CCN(c4ncccn4)CC3)cc2o1` [drawing 17], the minimal effective dose in series [1] turned out to be 3 mg/kg.

On to `O=c1ccc2ccc(OCCCN3CC=C(c4ccccc4)CC3)cc2o1` [drawing 18], for which, in series [1], the minimal effective dose came out at 1 mg/kg.

`O=c1ccc2ccc(OCCCN3CC=C(c4ccccc4)CC3)cc2o1` [drawing 23] showed a pIC50 in series [2] of 7.80.

Regarding `O=c1ccc2ccc(OCCCN3CCN(c4ncccn4)CC3)cc2o1` [7-[3-[4-(2-pyrimidinyl)-1-piperazinyl]propoxy]-2H-1-benzopyran-2-one], the “responding during trial periods” value is listed as “not at 27.5 mg/kg PO” in series [3] (27.5 mg/kg PO (no increase)); “increased responding during trial periods” in series [3] (55 and 80 mg/kg PO). Also, the “Total Punished Responses, Test” value was determined as 44 in series [3] (27.5 mg/kg PO, Pretest (nondrug session) 39); 147 in series [3] (55 mg/kg PO, Pretest (nondrug session) 78); 77 in series [3] (80 mg/kg PO, Pretest (nondrug session) 23). Moreover, the “rats with increases in punished responding” value in series [3] (80 mg/kg) is “four of four rats”; in series [3] (55) it was “three of four rats”. Moreover, the gross sedation entry in series [3] (55 and 80 mg/kg PO) is given as “notable absence of gross sedation”. Besides, in series [3] (55 and 80 mg/kg PO, unpunished responding), the “responding during the VI component” value is listed as “not accompanied by decreased responding during the VI component”.

On to `Cc1cc(=O)oc2cc(OCCCN3CCN(c4ccccc4)CC3)ccc12` [drawing 16], for which the minimal effective dose in series [1] came out at 1 mg/kg.

As for `O=c1ccc2ccc(OCCCN3CCN(c4ncccn4)CC3)cc2o1` [drawing 22], in series [2] (read-out: IC50), the pIC50 is 6.03.
